The test system of one test is 4F2hc-IU12 heterodimers. Nature of the test: Thyroid hormone and amino acid transport by 4F2hc-IU12 heterodimers expressed in Xenopus oocytes (radiotracer uptake and its inhibition). The test is classed as cell-based, Xenopus laevis. The note with it: for inhibition of 4F2hc-IU12 induced [3H]tryptophan uptake, in words: 1 μM tryptophan tracer, inhibitors 10 μM T4, 5 mM BCH, increasing unlabelled T3 or tryptophan; for inhibition of 4F2hc-IU12 induced 0.1 μM TH (T3) uptake, in words: inhibitors 10 μM T3/T4, 5 mM BCH, 10 mM tryptophan, data shown for T3 only; for Vmax of 4F2hc-IU12 induced transport / Km / uptake of [3H]phenylalanine and [3H]tryptophan: 4F2hc-IU12 injected oocytes; for Vmax of 4F2hc-IU12 induced transport / Km: 4 days post-injection, TH 0.05-10 μM, 60 min uptake; for Km: read-out: apparent Km of 4F2hc-IU12 induced transport; for uptake of [3H]phenylalanine and [3H]tryptophan: 50 μM amino acid, preliminary experiments. From the text:
Xenopus laevis toads were purchased from the South African Xenopus Facility. Chemicals were obtained from Sigma (UK) with the exception of Collagenase A (Boehringer, UK) and Ultraspec water (Ambion, UK). Radiotracers were purchased from NEN (UK). cDNAs encoding IU12 (2.3 Kb EcoRI/ApaI fragment from pBluescriptSK-IU12) (Liang et al. 1997, Cell Res 7: 179-193) and human 4F2hc (1.85 Kb Ecor1/BamH1 fragment from pSP65-4F2) (Teixeira et al. 1987, J Biol Chem 262: 9574-9580) were subcloned into the multiple-cloning region of pSG5 (an SV-40 driven expression plasmid).
(§1) Oocytes were isolated by collagenase treatment (Peter et al. 1996, Biochem J 318: 915-922) of ovarian tissue obtained from mature female Xenopus laevis toads (South African Xenopus Facility). Defolliculated, stage V-V1 (prophase-arrested) oocytes were selected and maintained at 18° C. in Modified Barth's Medium (MBM) containing (in mM): 88 NaCl, 1 KCL, 2.4 NaHCO3, 0.82 MgSO4.7H2O, 0.66 NaNO3, 0.75 CaCl2x2H2O, 5.0 HEPES, pH 7.6 with Tris base, 10 mg/liter gentamycin sulphate. For DNA injection, oocytes were transferred into individual wells of Tetraski plates pre-filled with MBM and centrifuged at 500 g for 10 minutes at 18° C., which causes migration of the nucleus to the cell surface and facilitates nuclear injection (Mertz & Gurdon 1977, PNAS 395: 288-291). The visible nucleus of each oocyte was injected with 2 ng DNA in 15 nl Ultraspec water using a pneumatic delivery system (Peter et al. 1996, Biochem J 318: 915-922). For co-injection studies, 2 ng of both DNAs (i.e. 4F2hc/IU12) were injected. Nuclei of control oocytes were injected with Ultraspec water. Oocytes were incubated in MBM at 18° C. for 4 days to allow expression of injected DNA before experimentation.
(§2) All experiments were carried out at 22° C. using Na^+-free transport buffer (unless otherwise stated) containing 100 mM tetramethylammonium chloride (TMACl), 2 mM KCl; 1 mM CaCl2; 1 mM MgCl2; 10 mM HEPES, pH 7.5 with Tris). Radiolabelled amino acid uptake (3H-phenylalanine or ^3H-tryptophan over 30 min) was also measured (Peter et al. 1996, Biochem J 318: 915-922). BCH (5 mM) was used as a specific inhibitor of amino acid transport System L.
Data are expressed as mean values±standard error of the mean (S.E.M; n=number of observations). Experimental measurements in each batch of oocytes were made on 7-11 individual oocytes. Differences between mean values were assessed using Students unpaired t-test, with significance assigned at p<0.05.

Test [1] deals with T3-dependent activation of luciferase activity. In words: Thyroid-responsive luciferase reporter (TRE) in oocytes expressing 4F2hc-IU12. The test is classed as cell-based, Xenopus laevis. Conditions: 5 mM BCH, 10 nM T3, 24 h; preliminary data from one batch of oocytes. The procedure: FIG. 6. […] Ratio of luminescent counts for each oocyte type compared to thyroid-responsive luciferase (TRE)-only injected oocytes. Data shown for n=4 batches (each 7-9 oocytes). […] 4/I/R/T—4F2hc/IU12/RXRα/TRβ co-injected oocytes. RXRα/TRβ (heterodimers of RXR, or 9-cis retinoic acid receptor, and TR)— nuclear receptors for TH; *, significant change in luciferase activity compared to TRE-only injected oocytes (p<0.05). […] All incubations were performed over a 24-hour time period.
Overexpression of the 4F2hc-IU12 heterodimer in oocytes produced a functional activation of System L transporter activity.

For test [2], the system named is T3-dependent transcriptional activation of a luciferase reporter in BeWo cells. In words: T3-induced luciferase reporter activity in BeWo cells. Conditions: 24 h exposure. The test is classed as cell-based, human. The method, then:
FIG. 7. […] Infected cells were exposed to experimental conditions for 24 h prior to assay of luciferase activity.
In general terms: A reporter such as luciferase makes a cellular process visible.

The subject of test [3] is BeWo placental choriocarcinoma cells. In words: Nuclear uptake of [125I]T3 in BeWo cells. The test is classed as cell-based, human.
A further test has as its system water-injected oocytes. In words: Basal radiotracer uptake in control (water-injected) Xenopus oocytes. Conditions: for uptake of [3H]phenylalanine and [3H]tryptophan: 50 μM amino acid, water-injected cells. The test is classed as cell-based, Xenopus laevis. The method, then: as §1, §2
The target of test [4] is human 4F2 heavy-chain (4F2hc) glycoprotein (human) (UniProt P08195).

From patent US20090081212A1, “USE AND TARGETING OF CD98 LIGHT-CHAIN PROTEINS IN THERAPIES FOR THYROID HORMONE DISORDERS” (The Government of the U.S.A., as Represented by the …, priority 2000, published 2009) come the findings set out here.

As for `NC1(C(=O)O)CC2CCC1C2` (stereo not shown) [BCH, 2-endoamino-bicycloheptane-2-carboxylic acid], in the test on 4F2hc-IU12 heterodimers, the “inhibition of 4F2hc-IU12 induced [3H]tryptophan uptake, in words” value (from here on “inhibition … [3H]tryptophan uptake, in words”) is listed as “inhibited” and the “inhibition of 4F2hc-IU12 induced 0.1 μM TH (T3) uptake, in words” value (“inhibition … (T3) uptake, in words” for short) is “significantly inhibited”. Also, the “effect on T3-dependent activation of luciferase activity in oocytes expressing 4F2hc-IU12” value in test [1] is reported as “blocked”. In test [2], the “effect on T3-dependent transcriptional activation of a luciferase reporter” value is “inhibit”. Also, the “effect on nuclear uptake of [125I]T3” value in test [3] was “inhibit”.

`N[C@@H](Cc1cc(I)c(Oc2ccc(O)c(I)c2)c(I)c1)C(=O)O` [T3, tri-iodothyronine]: the “control T3 uptake (absence of inhibitor)” value in the test with water-injected oocytes (0.1 μM T3, water-injected oocytes) stood at 22±3 fmol/oocyte.h.

Take `N[C@@H](Cc1cc(I)c(Oc2cc(I)c(O)c(I)c2)c(I)c1)C(=O)O` [T4, thyroxine]: the “average increase in uptake over control (water- or IU12-injected oocytes)” value with 4F2hc-IU12 heterodimers (0.1 μM TH, n=5 batches of oocytes) was found to be 2.1±0.5 times. In the test on 4F2hc-IU12 heterodimers, the “inhibition … [3H]tryptophan uptake, in words” value is given as “has not achieved statistical significance”; the “Vmax of 4F2hc-IU12 induced transport” value is recorded as 2.0±0.6 pmol/oocyte.h; the Km (in general, the concentration of substrate that gives half-maximal velocity) turned out to be 6.3 µM; the “inhibition … (T3) uptake, in words” value is listed as “mutual cross-inhibition”.

As to `O=C(O)Cc1cc(I)c(Oc2ccc(O)c(I)c2)c(I)c1` [TRIAC, triodothyroacetic acid], in the test with water-injected oocytes (water-injected oocytes), the “inhibition of T3 uptake, in words” value is “did not inhibit” and the “inhibition of tryptophan uptake, in words” value is given as “did not inhibit”.

On to `N[C@@H](Cc1ccccc1)C(=O)O` [phenylalanine], for which the figures for the “uptake of [3H]phenylalanine and [3H]tryptophan” value with 4F2hc-IU12 heterodimers and in the test with water-injected oocytes were 120 pmol/oocyte.h and 10 pmol/oocyte.h, respectively.

Regarding `NC(Cc1ccc(Oc2cc(I)c(O)c(I)c2)c(I)c1)C(=O)O` (stereo not shown) [rT3, reverse tri-iodothyronine], in the test on 4F2hc-IU12 heterodimers (inhibitor 10 μM, n=3 preparations), the “inhibition of induced 0.1 μM T3 uptake” value worked out at 41±4%.

Take `N[C@@H](Cc1c[nH]c2ccccc12)C(=O)O` [tryptophan]: in the test with 4F2hc-IU12 heterodimers, the “inhibition … [3H]tryptophan uptake, in words” value is “concentration-dependent inhibition”; the “uptake of [3H]phenylalanine and [3H]tryptophan” value is on record as 120 pmol/oocyte.h; the “Vmax of 4F2hc-IU12 induced transport” value came to 180±54 pmol/oocyte.h; the Km was 70 µM. Moreover, the “inhibition … (T3) uptake, in words” value in the test with 4F2hc-IU12 heterodimers was “significantly inhibited”. For the same compound, the “control tryptophan uptake (absence of inhibitor)” value with 4F2hc-IU12 heterodimers (1 μM tryptophan, 4F2hc-IU12-injected oocytes) is listed as 10.2±0.4 pmol/oocyte.h. Moreover, in test [2], the “effect on T3-dependent transcriptional activation of a luciferase reporter” value is given as “inhibit”. For the same compound, the “control tryptophan uptake (absence of inhibitor)” value in the test on water-injected oocytes (1 μM tryptophan, water-injected oocytes) is listed as 2.1±0.1 pmol/oocyte.h. In addition, the “uptake of [3H]phenylalanine and [3H]tryptophan” value in the test with water-injected oocytes was 10 pmol/oocyte.h. Further, in test [3], the “effect on nuclear uptake of [125I]T3” value was “inhibit”.

In the case of “Xenopus laevis IU12 light-chain (lc) permease”, in test [4], the uptake of [3H]phenylalanine and [3H]tryptophan into Xenopus oocytes (pmol/oocyte.h) stood at 120; the uptake of [125I]T3 and [125I]T4 (0.1 µM) into Xenopus oocytes (times over control (T3)) worked out at 2.7.
